This series in a line: Pharmacokinetic interaction study in rats, plasma by UPLC-MS/MS. It is filed as in vivo, Sprague–Dawley rats. Conditions: oral, n = 6.

Our source for the Cmax and Vz values is PMC13286198 (PLOS One, 2026).

Description: The sample size for each group of rats was calculated using the resource equation method [27]. The doses were chosen by converting the clinically recommended doses for patients to animal doses. […] The value of Km represents the equivalent dose ratio between humans and rats, calculated based on body surface area. […] The following groups received control solvents corresponding to each drug for a duration of seven consecutive days. […] Conversely, remaining groups were treated with their respective drugs at the aforementioned doses for seven consecutive days. […] Blood samples were centrifuged at 3,500 rpm for 10 min, and the supernatant was collected and stored at -80°C until processing for UPLC-MS/MS. The induction of anesthesia was performed using 5% isoflurane, and the concentration was maintained at 2% throughout the blood collection process. The blood was extracted from the eye venous plexus by well-trained professionals to minimize the animal's suffering. Following blood collection, rat liver, intestinal and kidney tissues were collected for molecular analysis on the seventh day post-treatment with the corresponding drugs for each group. Before euthanizing the animals, they were required to fast for at least 12 hours. Using sodium pentobarbital (2 g/kg) to put the animals into a deep state of anesthesia, Collect the required tissue samples and the rats were euthanized by cervical dislocation. […] The temperature maintained at 40 by gradient elution. […] Aliquots (8 μL) of these redissolved samples were used into the UPLC-MS/MS system for subsequent analysis. […] Analysis was conducted in a non-compartmental model. The metrics such as the area under the concentration-time curve (AUC), maximum plasma concentration (Cmax), time to reach Cmax (Tmax), elimination half-life (t1/2), plasma clearance volume per time unit (CLz/F), apparent volume of distribution (Vz), and mean residence time (MRT) were expressed as mean ± standard deviation (SD). Comparisons corresponding test groups were conducted using SPSS 25.0 software (SPSS Inc., Chicago, IL, USA).

One may read the Cmax as the peak of the concentration-time curve. On to `CCOc1ccc(Cc2cc([C@@]34OC[C@@](CO)(O3)[C@@H](O)[C@H](O)[C@H]4O)ccc2Cl)cc1F` [henagliflozin], for which, under “henagliflozin 1 mg/kg after telmisartan 8 mg/kg for 7 days”, the maximum concentration (Cmax) is 356.83 ± 59.55 ng/mL. For the setting “henagliflozin 1 mg/kg alone”, the Vz stood at 3.87 ± 1.49 L/kg.

In the case of `CCCc1nc2c(C)cc(-c3nc4ccccc4n3C)cc2n1Cc1ccc(-c2ccccc2C(=O)O)cc1` [telmisartan], the Cmax ((control of the henagliflozin study)) was 160.33 ± 24.57 ng/mL.
